Among the data in ChEMBL document CHEMBL1212808, “The p110 delta structure: mechanisms for selectivity and potency of new PI(3)K inhibitors” (Nat Chem Biol, 2010) are IC50 values, retold here.

Experiment [1] deals with Phosphatidylinositol 4,5-bisphosphate 3-kinase catalytic subunit beta isoform (Homo sapiens, UniProt P42338). In words: Inhibition of p110beta.
The target of experiment [2] is Phosphatidylinositol 4,5-bisphosphate 3-kinase catalytic subunit alpha isoform (Homo sapiens, UniProt P42336). The experiment is described as follows: Inhibition of p110alpha.
Phosphatidylinositol 4,5-bisphosphate 3-kinase catalytic subunit alpha isoform, sequence (P42336 whole entry, canonical isoform): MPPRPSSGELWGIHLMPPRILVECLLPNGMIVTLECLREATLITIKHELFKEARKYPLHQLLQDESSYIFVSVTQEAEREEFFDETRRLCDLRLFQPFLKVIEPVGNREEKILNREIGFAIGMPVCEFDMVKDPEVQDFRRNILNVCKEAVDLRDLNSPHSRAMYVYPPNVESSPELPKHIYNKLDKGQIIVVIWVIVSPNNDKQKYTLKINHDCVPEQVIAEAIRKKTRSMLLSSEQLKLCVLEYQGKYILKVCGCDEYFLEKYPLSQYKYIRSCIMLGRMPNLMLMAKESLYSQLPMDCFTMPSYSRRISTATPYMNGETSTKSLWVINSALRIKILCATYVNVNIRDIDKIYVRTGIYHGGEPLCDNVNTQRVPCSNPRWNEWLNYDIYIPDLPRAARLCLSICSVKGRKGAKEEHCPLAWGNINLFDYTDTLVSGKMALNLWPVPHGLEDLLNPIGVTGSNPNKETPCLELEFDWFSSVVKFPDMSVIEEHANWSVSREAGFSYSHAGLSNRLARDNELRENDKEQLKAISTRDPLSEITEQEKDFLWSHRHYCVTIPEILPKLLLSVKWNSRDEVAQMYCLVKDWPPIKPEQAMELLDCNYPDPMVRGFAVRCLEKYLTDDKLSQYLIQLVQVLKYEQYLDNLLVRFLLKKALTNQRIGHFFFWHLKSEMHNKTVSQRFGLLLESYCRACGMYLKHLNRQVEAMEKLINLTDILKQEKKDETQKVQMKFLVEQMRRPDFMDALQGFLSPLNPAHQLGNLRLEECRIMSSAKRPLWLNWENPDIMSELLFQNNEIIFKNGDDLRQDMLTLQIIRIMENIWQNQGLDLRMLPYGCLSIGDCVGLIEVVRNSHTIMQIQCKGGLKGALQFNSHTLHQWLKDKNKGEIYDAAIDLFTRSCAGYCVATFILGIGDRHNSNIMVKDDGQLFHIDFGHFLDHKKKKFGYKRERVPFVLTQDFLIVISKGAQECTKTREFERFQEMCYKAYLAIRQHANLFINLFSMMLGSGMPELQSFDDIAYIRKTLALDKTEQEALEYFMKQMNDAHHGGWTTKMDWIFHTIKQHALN
For experiment [3], the target named is Phosphatidylinositol 4,5-bisphosphate 3-kinase catalytic subunit gamma isoform (Homo sapiens, UniProt P48736). In words: Inhibition of p110gamma.
Phosphatidylinositol 4,5-bisphosphate 3-kinase catalytic subunit gamma isoform, sequence (P48736 whole entry, canonical isoform): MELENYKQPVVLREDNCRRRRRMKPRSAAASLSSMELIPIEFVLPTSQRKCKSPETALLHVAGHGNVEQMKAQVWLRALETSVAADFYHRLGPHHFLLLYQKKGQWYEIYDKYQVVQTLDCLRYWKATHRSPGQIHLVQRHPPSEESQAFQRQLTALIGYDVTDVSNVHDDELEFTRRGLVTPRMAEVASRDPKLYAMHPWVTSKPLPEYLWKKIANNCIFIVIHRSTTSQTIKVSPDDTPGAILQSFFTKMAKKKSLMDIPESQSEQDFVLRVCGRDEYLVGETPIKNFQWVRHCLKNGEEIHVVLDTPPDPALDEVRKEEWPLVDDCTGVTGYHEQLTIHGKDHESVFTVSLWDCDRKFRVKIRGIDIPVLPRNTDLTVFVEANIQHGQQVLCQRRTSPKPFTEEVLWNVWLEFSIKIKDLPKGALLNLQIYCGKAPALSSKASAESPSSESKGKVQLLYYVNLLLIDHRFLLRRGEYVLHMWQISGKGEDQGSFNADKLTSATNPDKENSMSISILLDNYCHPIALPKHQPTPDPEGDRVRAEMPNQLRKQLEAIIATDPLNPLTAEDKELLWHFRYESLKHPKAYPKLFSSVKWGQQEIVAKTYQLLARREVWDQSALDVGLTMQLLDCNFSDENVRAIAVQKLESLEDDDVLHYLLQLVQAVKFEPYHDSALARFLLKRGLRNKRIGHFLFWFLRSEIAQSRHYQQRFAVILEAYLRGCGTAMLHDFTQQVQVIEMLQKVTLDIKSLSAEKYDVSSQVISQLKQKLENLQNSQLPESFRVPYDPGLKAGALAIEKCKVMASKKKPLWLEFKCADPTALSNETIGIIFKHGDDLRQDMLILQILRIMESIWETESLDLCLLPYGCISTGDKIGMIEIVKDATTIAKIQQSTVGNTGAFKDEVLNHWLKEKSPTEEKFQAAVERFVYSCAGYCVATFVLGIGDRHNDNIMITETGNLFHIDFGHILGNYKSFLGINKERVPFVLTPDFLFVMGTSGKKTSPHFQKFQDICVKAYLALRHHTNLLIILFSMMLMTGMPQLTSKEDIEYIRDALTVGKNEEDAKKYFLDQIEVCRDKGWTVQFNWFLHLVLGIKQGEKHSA

Phosphatidylinositol 4,5-bisphosphate 3-kinase catalytic subunit beta isoform, sequence (P42338 whole entry, canonical isoform): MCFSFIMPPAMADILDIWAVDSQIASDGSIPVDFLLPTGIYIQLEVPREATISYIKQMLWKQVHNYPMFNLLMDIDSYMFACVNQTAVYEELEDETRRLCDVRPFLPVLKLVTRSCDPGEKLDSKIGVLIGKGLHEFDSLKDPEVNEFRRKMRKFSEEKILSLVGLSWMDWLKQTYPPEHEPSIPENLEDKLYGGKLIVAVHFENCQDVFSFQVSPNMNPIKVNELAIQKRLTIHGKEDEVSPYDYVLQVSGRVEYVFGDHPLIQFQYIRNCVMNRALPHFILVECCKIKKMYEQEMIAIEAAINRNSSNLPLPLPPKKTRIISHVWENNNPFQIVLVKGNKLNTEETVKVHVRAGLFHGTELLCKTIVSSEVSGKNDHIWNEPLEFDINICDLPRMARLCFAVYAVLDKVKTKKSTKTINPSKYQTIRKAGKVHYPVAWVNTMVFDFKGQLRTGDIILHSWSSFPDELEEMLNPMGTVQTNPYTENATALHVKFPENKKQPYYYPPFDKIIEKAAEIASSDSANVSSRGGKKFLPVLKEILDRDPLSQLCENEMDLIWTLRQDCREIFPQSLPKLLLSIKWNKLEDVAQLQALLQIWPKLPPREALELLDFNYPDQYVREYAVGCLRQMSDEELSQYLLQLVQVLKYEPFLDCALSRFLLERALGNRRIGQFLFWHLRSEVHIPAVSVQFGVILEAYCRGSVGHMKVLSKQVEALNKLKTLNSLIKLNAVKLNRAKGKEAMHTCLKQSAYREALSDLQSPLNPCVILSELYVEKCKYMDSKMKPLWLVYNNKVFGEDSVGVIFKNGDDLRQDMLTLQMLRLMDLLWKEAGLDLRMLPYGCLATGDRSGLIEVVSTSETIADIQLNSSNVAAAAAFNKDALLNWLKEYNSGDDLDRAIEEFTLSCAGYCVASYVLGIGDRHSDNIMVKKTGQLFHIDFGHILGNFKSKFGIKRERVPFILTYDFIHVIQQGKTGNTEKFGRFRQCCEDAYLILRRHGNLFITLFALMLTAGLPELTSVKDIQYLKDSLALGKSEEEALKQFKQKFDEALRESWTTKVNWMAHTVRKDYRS

For `CC(=O)Nc1nc2ccc(-c3nn(Cc4cc5ccccc5nc4N4CCN(C)CC4)c4ncnc(N)c34)cc2s1`, the IC50 in experiment [1] was determined as 23 nM; in experiment [2] it was 788 nM; in experiment [3], 185 nM.

`CN1CCN(c2nc3ccccc3cc2Cn2nc(-c3ccc4nc(N)sc4c3)c3c(N)ncnc32)CC1`: the IC50 in experiment [1] was 9 nM; in experiment [2], 137 nM; in experiment [3], 4 nM.

As to `CC(C)n1nc(C#Cc2cccnc2)c2c(N)ncnc21`, the IC50 in experiment [1] is 664 nM; in experiment [2], 53 nM; in experiment [3], 113 nM.

In the case of `CC(C)n1nc(C#Cc2cccc(O)c2)c2c(N)ncnc21`, the 50% inhibitory concentration (IC50) in experiment [1] was 316 nM; in experiment [2] it was 34 nM; in experiment [3], 69 nM.

Consider `COc1cc(Nc2nc3ccccc3nc2NS(=O)(=O)c2ccc(F)cc2)cc(OC)c1`, for which the results for the IC50 in experiment [1], in experiment [2] and in experiment [3] were 10000 nM, 400 nM and 10000 nM, respectively.

As for `COc1ccccc1-n1c(SCC(=O)Nc2ccc3nccnc3c2)nc2c(c1=O)CCCC2`, the IC50 in experiment [1] worked out at 4230 nM; in experiment [2], 3440 nM; in experiment [3], 20000 nM.

In general, IC50 refers to the point on the concentration scale where inhibition reaches its midpoint. High values mean a need for much substance, low ones inhibition by little substance.
